Here are results for ten compounds from patent US5288743A, “Indole carboxylate derivatives which inhibit leukotriene biosynthesis” (Abbott Laboratories, priority 1992, dated 1994).

As usually defined, the IC50 is the concentration at which inhibition is half-maximal. For orientation: ED50 means the dose that gives a 50% effect, or the effect in half of the subjects.

The subject of experiment [1] is LTB4 biosynthesis in human PMNL. Description: Inhibition of calcium ionophore A23187-induced LTB4 biosynthesis in human polymorphonuclear leukocytes (PMNL). The conditions noted are these: human PMNL (5×10^6 cells/250 μL), 15 min preincubation at 37° C., A23187 8.3 μM, 10 min, LTB4 by HPLC. It counts as cell-based. The procedure: Inhibition of leukotriene biosynthesis was evaluated in assays, involving calcium ionophore-induced LTB4 biosynthesis expressed by human polymorphonuclear leukocytes (PMNL) or human whole blood. Human PMNL were isolated from heparinized (20 USP units/mL) venous blood using Ficoll-Hypaque Mono-Poly Resolving Medium. Human PMNL suspensions (5×10^6 cells/250 μL) were preincubated with test compounds or vehicle for 15 min at 37° C. followed by calcium ionophore A23187 challenge (final concentration of 8.3 μM) and the reaction terminated after 10 min by adding two volumes of methanol containing prostaglandin B2 as an internal recovery standard. The methanol extracts were analyzed for LTB4 content by HPLC.

Experiment [2] deals with LTB4 biosynthesis in human whole blood. Put plainly: Inhibition of calcium ionophore A23187-induced LTB4 biosynthesis in human whole blood. The experiment is classed as cell-based. The following applies: 0.5 h; human heparinized whole blood, A23187 50 μM, 30 minutes at 37° C., LTB4 by radioimmunoassay. Here is the method: The assay using human heparinized whole blood was incubated for 30 minutes at 37° C. after adding 50 μM of ionophore A23187. The plasma layer was obtained by centrifugation and deproteinized by the addition of four volumes of methanol. The methanol extract was analyzed for LTB4 using a commercially available radioimmunoassay.

Another experiment has as its system leukotriene biosynthesis. Put plainly: Inhibition of leukotriene biosynthesis in vivo, rat peritoneal anaphylaxis model, oral administration. The following applies: for percent inhibition of leukotriene biosynthesis: oral dose of 30 μmol/kg, gavage one hour prior to antigen challenge. Here is the method:
Inhibition of the biosynthesis of leukotrienes in vivo after oral administration of compound was determined using a rat peritoneal anaphylaxis model in a similar manner as that described by Young and coworkers (Young, P. R.; Dyer, R. D.; Carter, G. W. Fed. Proc., Fed. Am. Soc. Exp. Biol. 1985, 44, 1185). In this model rats were injected intraperitoneally (ip) with rabbit antibody to bovine serum albumin (BSA) and three hours later injected ip with BSA to induce an antigen-antibody response. Rats were sacrificed 15 minutes after this challenge and the peritoneal fluids were collected and analyzed for leukotriene levels. Test compounds were administered by gavage one hour prior to the antigen challenge. Percent inhibition values were determined by comparing the treatment group to the mean of the control group. […] Compounds 5, 8, and 9 inhibit>50% leukotriene biosynthesis with an oral dose of 30 μmol/kg.

Take `CC(C)(C)Sc1c(CC(C)(C)C(=O)O)n(Cc2ccc(Cl)cc2)c2ccc(OCc3cccnc3)cc12` [Example 1, 3-[1-(4-chlorobenzyl)-3-(1,1-dimethylethylthio)-5-(pyrid-3-ylmethoxy)-indol-2-yl]-2,2-dimethylpropionic acid]: the IC50 in experiment [1] came to 17 nM; in experiment [2], 1090 nM.

For `CC(C)(C)Sc1c(CC(C)(C)C(=O)O)n(Cc2ccc(Cl)cc2)c2ccc(OCc3ccncc3)cc12` [Example 2, 3-[1-(4-chlorobenzyl)-3-(1,1-dimethylethylthio)-5-(pyrid-4-ylmethoxy)-indol-2-yl]-2,2-dimethylpropionic acid], the values for the IC50 in experiment [1] and in experiment [2] were less than 100 nM and 840 nM, respectively.

For `CC(C)(C)Sc1c(CC(C)(C)C(=O)O)n(Cc2ccc(Cl)cc2)c2ccc(OCc3ccccn3)cc12` [Example 3, 3-[1-(4-chlorobenzyl)-3-(1,1-dimethylethylthio)-5-(pyrid-2-ylmethoxy)indol-2-yl]-2,2-dimethylpropionic acid], the results for the IC50 in experiment [1] and in experiment [2] were less than 50 nM and 50 nM, respectively. In the experiment on leukotriene biosynthesis (1 h, po (gavage) one hour prior to antigen challenge, read-out: inhibits leukotriene biosynthesis, ED50), the ED50 was found to be 0.1 mg/kg.

Regarding `CC(C)(C)Sc1c(CC(C)(C)C(=O)O)n(Cc2ccc(Cl)cc2)c2ccc(OCc3ccc4ccccc4c3)cc12` [Example 4, 3-[1-(4-chlorobenzyl)-3-(1,1-dimethylethylthio)-5-(napth-2-ylmethoxy)indol-2-yl]-2,2-dimethylpropionic acid], the values for the IC50 in experiment [1] and in experiment [2] were 12 nM and 4420 nM, respectively.

Turning to `CC(C)(C)Sc1c(CC(C)(C)C(=O)O)n(Cc2ccc(Cl)cc2)c2ccc(Oc3ccccn3)cc12` [Example 5, 3-[1-(4-chlorobenzyl)-3-(1,1-dimethylethylthio)-5-(pyrid-2-yloxy)indol-2-yl]-2,2-dimethylpropionic acid], the IC50 in experiment [1] is 15 nM; in experiment [2], 2470 nM. Besides, in the experiment on leukotriene biosynthesis, the “percent inhibition of leukotriene biosynthesis” value (“percent inhibition” for short) was more than 50%.

Consider `CC(C)(C)Sc1c(CC(C)(C)C(=O)O)n(Cc2ccc(Cl)cc2)c2ccc(OCc3ccc(Cl)s3)cc12` [Example 6, 3-[1-(4-chlorobenzyl)-5-(5-chlorothien-2-ylmethoxy)-3-(1,1-dimethylethylthio)indol-2-yl]-2,2-dimethylpropionic acid], for which the IC50 in experiment [1] was less than 800 nM; in experiment [2], 3200 nM.

In the case of `Cc1cc(C)nc(COc2ccc3c(c2)c(SC(C)(C)C)c(CC(C)(C)C(=O)O)n3Cc2ccc(Cl)cc2)n1` [Example 7, 3-[1-(4-chlorobenzyl)-3-(1,1-dimethylethylthio)-5-(4,6-dimethylpyrimid-2-ylmethoxy)indol-2-yl]-2,2-dimethylpropionic acid], the IC50 in experiment [1] came to 30 nM; in experiment [2], 1600 nM.

In the case of `CC(C)(C)Sc1c(CC(C)(C)C(=O)O)n(Cc2ccc(Cl)cc2)c2ccc(OCc3cccc(Cl)n3)cc12` [Example 8, 3-[1-(4-chlorobenzyl)-5-(6-chloropyrid-2-ylmethoxy)-3-(1,1-dimethylethylthio)indol-2-yl]-2,2-dimethylpropionic acid], the IC50 in experiment [1] turned out to be 17 nM; in experiment [2], 110 nM. Further, in the experiment with leukotriene biosynthesis, the “percent inhibition” value is more than 50%.

For `CC(C)(C)Sc1c(CC(C)(C)C(=O)O)n(Cc2ccc(Cl)cc2)c2ccc(OCc3cscn3)cc12` [Example 9, 3-[1-(4-chlorobenzyl)-3-(1,1-dimethylethylthio)-5-(thiazol-4-ylmethoxy)indol-2-yl]-2,2-dimethylpropionic acid], the IC50 in experiment [1] worked out at 4.4 nM; in experiment [2] it was 40 nM. Also, the “percent inhibition” value in the experiment with leukotriene biosynthesis is given as more than 50%.

Take `CC(C)(C)Sc1c(CC(C)(C)C(=O)O)n(Cc2ccc(Cl)cc2)c2ccc(OCc3cccs3)cc12` [Example 10, 3-[1-(4-chlorobenzyl)-3-(1,1-dimethylethylthio)-5-(thien-2-ylmethoxy)indol-2-yl]-2,2-dimethylpropionic acid]: the IC50 was determined as 7 nM in experiment [1] and 1400 nM in experiment [2].
